System: human cord blood-derived CD34^+ cells
Assay: Expansion of CD34^+ cells from human cord blood-derived CD34^+ cells (7-day liquid culture with SCF, flow cytometry)
Type: cell-based
Settings: 168 h, based on the number of CD34^+ cells in the absence of compound, 100 ng/mL SCF, 7 days, read-out: Expansion efficiency; for fold induction at 1 µg/mL: 1 μg/mL compound; for fold induction at 0.3 µg/mL: 0.3 μg/mL compound
Description: Commercially available human cord blood-derived CD34^+ cells (Cambrex Bio Science Walkersville) were plated on a 12-well plate (Corning) (from 5000 to 10000 cells/1 mL/well). As the culture medium, StemSpan SFEM (Stemcell Technologies) containing 100 ng/mL SCF (R&D Systems) was used, and Compounds Nos. 1 to 16 dissolved in dimethyl sulfoxide were added in an amount of 0.1% (v/v) to a final concentration of 0.3 or 1 μg/mL.
After the cells were incubated in liquid culture at 37° C. for 7 days in a CO2 incubator (in an atmosphere containing 5 vol % CO2), the total number of cells was counted by trypan blue assay (Invitrogen) or Flow-Count™ fluorosphere assay (Beckman Coulter). The number of CD34^+ cells was calculated as follows. After the incubation, the cells in the liquid culture was stained with a CD34 antibody (PE, Becton, Dickinson and Company). The stained cells were analyzed with a flow cytometer (Beckman Coulter) to determined the proportion of CD34^+ cells, which was multiplied by the total number of cells to calculate the number of CD34^+ cells.
The expansion efficiencies in the presence of 0.3 μg/mL or 1 μg/mL of compounds based on the number of CD34^+ cells in the absence of them are shown in Table 3 on a scale of A for expansion efficiencies of 3 or greater, B for expansion efficiencies of at least 2 and less than 3, and C for expansion efficiencies of at least 1.5 and less than 2.

Row | SMILES | fold induction at 1 µg/mL | fold induction at 0.3 µg/mL
1 | C/C(=N\NC(=S)N1CCC(C(=O)O)CC1)c1csc(-c2ccc(Cl)c(Cl)c2)c1O [compound 1] | 2 to 3 | –
2 | C/C(=N\NC(=S)N1CCC(C(=O)O)CC1)c1csc(-c2ccc(C(F)(F)F)cc2)c1O [compound 2] | 2 to 3 | –
3 | C/C(=N\NC(=S)N1CCC(C(=O)O)CC1)c1nn(C)c(-c2ccc(C(F)(F)F)cc2)c1O [compound 3] | 1.5 to 2 | –
4 | COC(=O)C1CCN(C(=S)N/N=C(\C)c2nn(C)c(-c3ccc(Cl)c(Cl)c3)c2O)CC1 [compound 4] | 1.5 to 2 | –
5 | COC(=O)C1CCN(C(=S)N/N=C(\C)c2csc(-c3ccc(OC)cc3)c2O)CC1 [compound 5] | 1.5 to 2 | –
6 | COc1ccc(-c2scc(/C(C)=N/NC(=S)N3CCC(C(=O)O)CC3)c2O)cc1 [compound 6] | ≥ 3 | –
7 | C/C(=N\NC(=S)N1CCC(C(=O)O)CC1)c1csc(-c2ccc(C(C)(C)C)cc2)c1O [compound 7] | ≥ 3 | –
8 | C/C(=N\NC(=S)N1CCC(C(=O)O)CC1)c1csc(-c2ccc(Br)cc2)c1O [compound 8] | ≥ 3 | –
9 | CCCNC(=O)C1CCN(C(=S)N/N=C(\C)c2nn(C)c(-c3ccc(C(F)(F)F)cc3)c2O)CC1 [compound 9] | 2 to 3 | –
10 | C/C(=N\NC(=S)N1CCC(C(=O)O)CC1)c1csc(-c2ccc(C)c(C)c2)c1O [compound 10] | ≥ 3 | –
11 | C/C(=N\NC(=S)N1CCC(C(=O)O)CC1)c1csc(-c2ccc(OC(F)(F)F)cc2)c1O [compound 11] | ≥ 3 | –
12 | C/C(=N\NC(=S)N1CCC(C(=O)O)CC1)c1csc(-c2cccc(Cl)c2)c1O [compound 12] | 2 to 3 | –
13 | C/C(=N\NC(=S)N1CCC(C(=O)O)CC1)c1csc(-c2ccc(Cl)cc2)c1O [compound 13] | ≥ 3 | –
14 | C/C(=N\NC(=S)N1CCC(C(=O)NCc2ccncc2)CC1)c1csc(-c2ccc(Br)cc2)c1O [compound 14] | – | 1.5 to 2
15 | C/C(=N\NC(=S)N1CCC(C(=O)NCC(=O)O)CC1)c1csc(-c2ccc(Br)cc2)c1O [compound 16] | – | 2 to 3

— patent US20100310535A1, “METHOD FOR EXPANDING HEMATOPOIETIC STEM CELLS USING HETEROCYCLIC COMPOUND” (Nissan Chemical Industries, Ltd., priority 2007, published 2010)
